Results as given in PMC4950319, “Kinetic and structural characterization of amyloid‐β peptide hydrolysis by human angiotensin‐1‐converting enzyme” (The Febs Journal, 2016).
“And” between values parts separate entries of the source, which are not always exact repeats. Equal values may be shown once. “Also recorded” adds a separate entry of the source.

Tests used:
[1] = biological target: T1, Cdom (soluble form of the C‐domain of sACE) (Homo sapiens, UniProt P12821); assay: Aβ(4–10)Y hydrolysis by Cdom, fluorogenic assay; type: biochemical; details: fluorescence λex 320 nm, λem 420 nm, Hepes pH 7.5 buffer as for Aβ(4–10)Q, 5 min time point, enzyme 0.835 pmol, n = 3
T1 construct: lacks the transmembrane region and unique 36 amino acid N terminus (and is therefore identical to the sACE C‐domain); made in house; host or cells: CHO cells
Source text: (§1) Fluorogenic substrates designed around the established N‐terminal Asp7‐Ser8 cleavage site of the full‐length Aβ(1–42) were used to develop a higher throughput assay. There are two variations of the short fluorogenic peptides: Aβ(4–10)Q (Abz‐FRHDSG(Q)‐EDDnp) which has an N‐terminal Abz donor and a C‐terminal EDDnp quencher group attached to an additional Gln residue. The second peptide, Aβ(4–10)Y (Abz‐FRHDSG‐(NT)) has a different quencher molecule, NT, which substitutes for the naturally occurring Tyr residue.
(§2) An alternative fluorogenic peptide, Abz‐FRHDSG‐(NT) (BIOPEP™ South Africa) was assayed, with 100 μL enzyme and 100 μL substrate (at a final enzyme concentration within 10% hydrolysis of total substrate; see Table 3) as above, in 96‐well plates. The samples were read at the 5 min time point on a Cary Eclipse spectrofluorimeter (Varian Inc.) at λex = 320 nm and λem = 420 nm. Kinetic constants, inner filter effect and standard curves were calculated as above.
(§3) Statistical analysis of the data was determined by Student's t test. Differences with P < 0.05 were considered statistically significant. Fractional error was calculated for the k cat/K m ratio with the following equation: ΔZ=ZΔa/a^2+Δb/b^2 where Z represents the mean k cat/K m and ΔZ represents the fractional error. The Δa represents the SEM of the mean k cat (a). Similarly, Δb represents the SEM of the mean K m (b).

sACE [2] = biological target: T2, sACE (Homo sapiens, UniProt P12821); assay: Interdomain cooperativity in hydrolysis of Aβ substrates; type: biochemical
T2 construct: made in house; host or cells: CHO cells; purified from cell lysate
Procedure: Mixtures were separated on a Poroshell 120 EC‐18 column with a 2.7 μm pore size. The reaction consists of 25 μL substrate incubated with 25 μL enzyme for 15 min at 37 °C and was stopped with the addition of 10 μL of 0.25% trifluoroacetic acid (TFA). The total reaction (60 μL) was cleared of contaminants on a spin column (GHP Nanosep® MF Centrifugal Device 0.45 μm pore size) and run on the HPLC. Kinetic parameters were determined through the fitting of initial rates to the Michaelis–Menten equation with […] PRISM software (v 4.01, GraphPad Prism®).
The reaction was incubated for 15 min at 37 °C and stopped with the addition of 10 μL 0.25% TFA to make up a total volume of 60 μL. The reactions were performed in triplicate and 50 μL injections were analysed via HPLC (Agilent Technologies) across a gradient of 0.1% TFA and 2% ACN in water to 0.1% TFA, 95% ACN. A calibration curve was set up to convert the product peak area to picomoles product formed, through the complete hydrolysis of the substrate with the N‐domain. […] Kinetic constants were calculated using the Michaelis–Menten method using […] […]
The assay is a modified form of the continuous assay 7 where the assay is set up on ice in triplicate in a 96‐well plate. The baseline fluorescence was at time zero and then the substrate was incubated at 37 °C and fluorescence read at the 45 min time point on a Cary Eclipse spectrofluorimeter (Varian Inc.) at λex = 320 nm and λem = 420 nm. Again, kinetic constants were calculated using the Michaelis–Menten method with […] […] The detected fluorescence was converted to picamoles product formed through the slope of a calibration curve of Abz‐Gly. […]
as §2

[3] = biological target: T3, Ndom (soluble form of the N‐domain of sACE) (Homo sapiens, UniProt P12821); assay: Aβ(4–10)Y hydrolysis by Ndom, fluorogenic assay; type: biochemical
T3 construct: made in house; host or cells: CHO cells
Source text: as §1, §2, §3

CC‐sACE = assay: Interdomain cooperativity of two C‐domains; type: biochemical, human; details: catalytic ability per active site versus individual domains
Procedure: as §2

N‐sACE = biological target: T4, N‐sACE (Homo sapiens, UniProt P12821, H988K/H992K); assay: Aβ(4–10)Y hydrolysis by N‐sACE, fluorogenic assay; type: biochemical; details: fluorescence λex 320 nm, λem 420 nm, Hepes pH 7.5 buffer as for Aβ(4–10)Q, 5 min time point, enzyme 0.113 pmol, n = 3
T4 construct: Both constructs have the complete signal, transmembrane and stalk region corresponding to full‐length sACE; made in house; host or cells: CHO cells; purified from cell lysate
Source text: as §1, §2, §3

ACE variants = assay: Cleavage‐site analysis by MALDI‐TOF MS, kinetic assay conditions; type: biochemical, human; details: MALDI‐TOF MS of products within kinetic assay conditions; Aβ(1–16): all ACE variants except Cdom; Aβ(4–10) peptides: Cdom and CC‐sACE not analysed
Procedure: The mass spectrometry was analysed at the Centre for Proteomic and Genomic Research (Cape Town, South Africa). Briefly, the collected peptides were spotted onto a 10 mg·mL^−1 α‐cyano‐4‐hydroxycinnamic acid matrix (Fluka, USA) in 80% ACN, 0.2% TFA for a final concentration of 5 mg·mL^−1 matrix in 40% ACN, 0.1% TFA, 10 mM NH4H2PO4. Mass spectrometry was performed with a 4800 MALDI‐TOF/TOF (Applied Biosytems) with all spectra recorded in positive reflector mode. Spectra were generated with 400 laser shots/spectrum at a laser intensity of 3800 (arbitrary units) with a grid voltage of 16 kV.

sACE [4] = biological target: T2, sACE; assay: Aβ(4–10)Y hydrolysis by sACE, fluorogenic assay; type: biochemical
Source text: as §1, §2, §3

C‐sACE = biological target: T5, C‐sACE (Homo sapiens, UniProt P12821, H390K/H394K); assay: Aβ(4–10)Y hydrolysis by C‐sACE, fluorogenic assay; type: biochemical
T5 construct: Both constructs have the complete signal, transmembrane and stalk region corresponding to full‐length sACE; made in house; host or cells: CHO cells; purified from cell lysate
Source text: as §1, §2, §3

[5] = mean ± fractional error of the ratio
[6] = fluorescence λex 320 nm, λem 420 nm, Hepes pH 7.5 buffer as for Aβ(4–10)Q, 5 min time point, enzyme 0.228 pmol, mean ± SEM, n = 3
[7] = fluorescence λex 320 nm, λem 420 nm, Hepes pH 7.5 buffer as for Aβ(4–10)Q, 5 min time point, enzyme 0.031 pmol, mean ± SEM, n = 3
[8] = fluorescence λex 320 nm, λem 420 nm, Hepes pH 7.5 buffer as for Aβ(4–10)Q, 5 min time point, enzyme 0.226 pmol, mean ± SEM, n = 3

T5 sequence (P12821 30-1306 H390K/H394K): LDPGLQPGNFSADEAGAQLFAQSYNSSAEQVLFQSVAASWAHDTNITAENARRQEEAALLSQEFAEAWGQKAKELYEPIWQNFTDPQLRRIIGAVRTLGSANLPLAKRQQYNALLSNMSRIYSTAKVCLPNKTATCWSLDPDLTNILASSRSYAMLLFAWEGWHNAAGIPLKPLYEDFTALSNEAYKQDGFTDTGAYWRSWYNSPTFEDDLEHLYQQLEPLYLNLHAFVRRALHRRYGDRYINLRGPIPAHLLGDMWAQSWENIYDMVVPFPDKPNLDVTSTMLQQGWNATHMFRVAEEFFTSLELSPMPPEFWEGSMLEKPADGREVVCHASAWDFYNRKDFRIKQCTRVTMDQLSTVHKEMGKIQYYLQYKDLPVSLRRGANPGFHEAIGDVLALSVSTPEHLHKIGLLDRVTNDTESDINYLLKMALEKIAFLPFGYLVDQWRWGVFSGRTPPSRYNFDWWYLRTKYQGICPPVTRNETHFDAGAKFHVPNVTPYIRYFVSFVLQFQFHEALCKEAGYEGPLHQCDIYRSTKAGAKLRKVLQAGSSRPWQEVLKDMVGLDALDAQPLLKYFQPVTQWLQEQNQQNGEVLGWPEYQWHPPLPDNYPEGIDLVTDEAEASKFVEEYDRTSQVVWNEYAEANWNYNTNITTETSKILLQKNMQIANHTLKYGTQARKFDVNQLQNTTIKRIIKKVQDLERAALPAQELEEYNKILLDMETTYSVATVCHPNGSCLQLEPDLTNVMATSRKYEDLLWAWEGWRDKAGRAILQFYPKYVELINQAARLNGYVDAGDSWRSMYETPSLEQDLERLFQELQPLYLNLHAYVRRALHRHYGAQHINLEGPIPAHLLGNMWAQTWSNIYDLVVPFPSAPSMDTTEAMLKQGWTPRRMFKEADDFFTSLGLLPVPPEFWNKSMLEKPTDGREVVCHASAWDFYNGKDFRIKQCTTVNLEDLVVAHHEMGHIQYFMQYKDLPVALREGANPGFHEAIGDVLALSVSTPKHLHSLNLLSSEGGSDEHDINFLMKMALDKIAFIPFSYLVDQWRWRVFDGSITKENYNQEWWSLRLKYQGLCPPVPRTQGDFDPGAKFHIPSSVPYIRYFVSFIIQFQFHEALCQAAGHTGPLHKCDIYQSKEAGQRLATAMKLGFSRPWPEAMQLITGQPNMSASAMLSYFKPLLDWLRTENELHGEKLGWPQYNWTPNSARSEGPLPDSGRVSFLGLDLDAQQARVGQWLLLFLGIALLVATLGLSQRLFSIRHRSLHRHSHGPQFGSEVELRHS
T3 sequence (P12821 30-658): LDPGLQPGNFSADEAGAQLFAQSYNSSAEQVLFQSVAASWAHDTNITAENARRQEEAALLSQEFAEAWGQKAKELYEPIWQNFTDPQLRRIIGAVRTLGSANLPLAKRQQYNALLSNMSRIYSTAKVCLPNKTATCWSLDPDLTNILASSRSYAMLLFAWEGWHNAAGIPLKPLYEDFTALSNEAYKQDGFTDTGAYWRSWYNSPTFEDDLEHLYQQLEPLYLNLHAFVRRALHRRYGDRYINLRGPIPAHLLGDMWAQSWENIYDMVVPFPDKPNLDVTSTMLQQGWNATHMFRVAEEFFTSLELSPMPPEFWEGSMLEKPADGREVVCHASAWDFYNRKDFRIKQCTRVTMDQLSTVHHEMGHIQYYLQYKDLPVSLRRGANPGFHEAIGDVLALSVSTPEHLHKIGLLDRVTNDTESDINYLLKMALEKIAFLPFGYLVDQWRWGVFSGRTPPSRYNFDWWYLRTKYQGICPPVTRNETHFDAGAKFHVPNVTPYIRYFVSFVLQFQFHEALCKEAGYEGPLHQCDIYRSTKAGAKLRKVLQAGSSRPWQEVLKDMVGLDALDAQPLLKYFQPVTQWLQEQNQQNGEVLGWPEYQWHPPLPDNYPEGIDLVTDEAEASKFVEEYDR
T1 sequence (P12821 643-1222 limits assumed): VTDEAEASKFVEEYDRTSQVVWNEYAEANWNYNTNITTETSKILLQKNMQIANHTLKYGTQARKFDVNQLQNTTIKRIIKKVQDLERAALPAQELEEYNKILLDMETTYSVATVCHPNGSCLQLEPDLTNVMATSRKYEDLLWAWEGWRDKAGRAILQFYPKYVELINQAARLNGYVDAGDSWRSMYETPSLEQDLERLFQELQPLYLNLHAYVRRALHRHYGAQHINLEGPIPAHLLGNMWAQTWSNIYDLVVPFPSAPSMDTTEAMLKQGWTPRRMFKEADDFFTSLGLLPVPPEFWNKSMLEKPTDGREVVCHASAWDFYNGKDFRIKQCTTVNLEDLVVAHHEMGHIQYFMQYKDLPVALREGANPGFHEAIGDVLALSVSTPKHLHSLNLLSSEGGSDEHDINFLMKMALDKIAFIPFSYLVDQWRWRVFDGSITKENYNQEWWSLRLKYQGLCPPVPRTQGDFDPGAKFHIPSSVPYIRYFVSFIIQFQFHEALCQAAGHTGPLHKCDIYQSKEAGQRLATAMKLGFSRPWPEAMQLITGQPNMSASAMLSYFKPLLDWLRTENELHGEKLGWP
T2 sequence (P12821 30-1306): as the sequence (P12821 30-1306 H390K/H394K) above, with K361H, K365H counted along it
T4 sequence (P12821 30-1306 H988K/H992K): as the sequence (P12821 30-1306 H390K/H394K) above, with K361H, K365H, H959K, H963K counted along it
CC‐sACE, sequence (P12821 643-1222 limits assumed): as the sequence (P12821 643-1222 limits assumed) above

## Abz‐FRHDSG‐(NT) [Aβ(4–10)Y, fluorogenic Aβ(4–10) peptide with NT quencher substituting for Tyr]
[1]; mean ± SEM
  K m: 27.23 ± 9.52 µM
  V max: 4.45 ± 0.63
  k cat: 5.33 ± 0.76 s⁻¹
[1]; [5]
  k cat/K m: 2.30 ± 0.87 M^−1·s^−1 × 10^5
sACE [2]; examination of the N‐sACE and C‐sACE constructs
  interdomain cooperativity, full‐length constructs: positive domain cooperativity; also recorded: a positive form of cooperativity
sACE [2]; truncated domains versus sACE
  interdomain cooperativity, truncated domains taken into account: a negative effect on the activity of sACE
[3]; […] 10^5 versus […] 10^5 M^−1·s^−1
  catalytic efficiency by Ndom relative to Aβ(1–16): half the catalytic efficiency
[3]; [6]
  K m: 21.20 ± 0.31 µM
  V max: 4.62 ± 0.14
  k cat: 20.30 ± 0.62 s⁻¹
[3]; fluorescence λex 320 nm, λem 420 nm, Hepes pH 7.5 buffer as for Aβ(4–10)Q, 5 min time point, enzyme 0.228 pmol, mean ± fractional error of the ratio, n = 3
  k cat/K m: 9.57 M^−1·s^−1 × 10^5 and 9.57 ± 0.33 M^−1·s^−1 × 10^5
CC‐sACE
  cooperativity between the two C‐domains of CC‐sACE: no cooperativity; also recorded: an additive effect between the two C‐domains
N‐sACE; mean ± SEM
  K m: 8.56 ± 0.83 µM
  V max: 0.44 ± 0.01
  k cat: 3.87 ± 0.09 s⁻¹
N‐sACE; [5]
  k cat/K m: 4.61 ± 0.46 M^−1·s^−1 × 10^5
ACE variants
  cleavage site (bond): Asp7‐Ser8
sACE [4]; [7]
  K m: 12.60 ± 2.48 µM
  V max: 0.90 ± 0.18
  k cat: 28.70 ± 5.81 s⁻¹
sACE [4]; fluorescence λex 320 nm, λem 420 nm, Hepes pH 7.5 buffer as for Aβ(4–10)Q, 5 min time point, enzyme 0.031 pmol, mean ± fractional error of the ratio, n = 3
  k cat/K m: 22.67 ± 6.40 M^−1·s^−1 × 10^5
sACE [4]; sACE versus Ndom, P < 0.05
  catalytic efficiency of sACE, fold greater than Ndom: 2 fold
C‐sACE; C‐sACE versus active N‐domain counterpart, P < 0.05
  C‐sACE K m, fold larger than its active N‐domain counterpart: 2 fold
C‐sACE; [8]
  K m: 38.10 ± 0.10 µM
  V max: 1.57 ± 0.09
  k cat: 6.95 ± 1.39 s⁻¹
C‐sACE; fluorescence λex 320 nm, λem 420 nm, Hepes pH 7.5 buffer as for Aβ(4–10)Q, 5 min time point, enzyme 0.226 pmol, mean ± fractional error of the ratio, n = 3
  k cat/K m: 1.83 ± 0.18 M^−1·s^−1 × 10^5
